Active and inactive are the calls of the source.
Legend:
[1] = biological target: Cytochrome P450 2C19 (Homo sapiens, UniProt P33261); experiment: Cytochrome panel assay with activity outcomes. Panel member name: p450-cyp2c19 Compounds with AC50 equal or less than 10 uM are considered active; type: functional; settings: read-out: AC50
[2] = biological target: Cytochrome P450 2C9 (Homo sapiens, UniProt P11712)
[3] = biological target: Cytochrome P450 3A4 (Homo sapiens, UniProt P08684);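 further: CYP3A4 tested as one member of a cytochrome P450 panel screen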
[4] = test system: HEK293; experiment: cells; type: functional, cell-based; settings: Homo sapiens
[5] = biological target: T1, Nuclear receptor subfamily 0 group B member 1 (Homo sapiens, UniProt P51843); experiment: Luminescence-based cell-based high throughput dose response assay for inhibitors of the orphan nuclear receptor subfamily 0, group B, member 1 (DAX1; NR0B1). [Related pubchem assays (depositor defined):AID504766, AID504790]; type: functional
T1 sequence (P51843 whole entry): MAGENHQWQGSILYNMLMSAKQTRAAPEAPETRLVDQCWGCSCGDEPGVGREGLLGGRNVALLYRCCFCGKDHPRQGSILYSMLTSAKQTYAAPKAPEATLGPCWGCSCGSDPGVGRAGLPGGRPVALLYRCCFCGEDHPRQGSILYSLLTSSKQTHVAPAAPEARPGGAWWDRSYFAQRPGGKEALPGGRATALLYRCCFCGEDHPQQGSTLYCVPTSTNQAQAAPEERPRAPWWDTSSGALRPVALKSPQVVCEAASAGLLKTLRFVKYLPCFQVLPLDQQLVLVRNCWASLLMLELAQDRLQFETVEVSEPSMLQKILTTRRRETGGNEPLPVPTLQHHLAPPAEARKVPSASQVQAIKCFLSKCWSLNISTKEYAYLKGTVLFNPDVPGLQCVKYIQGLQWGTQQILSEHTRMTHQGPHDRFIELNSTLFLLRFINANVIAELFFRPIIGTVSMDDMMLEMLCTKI

[6] = biological target: T2, Cytochrome P450 1A2 (Homo sapiens, UniProt P05177)
T2 sequence (P05177 whole entry): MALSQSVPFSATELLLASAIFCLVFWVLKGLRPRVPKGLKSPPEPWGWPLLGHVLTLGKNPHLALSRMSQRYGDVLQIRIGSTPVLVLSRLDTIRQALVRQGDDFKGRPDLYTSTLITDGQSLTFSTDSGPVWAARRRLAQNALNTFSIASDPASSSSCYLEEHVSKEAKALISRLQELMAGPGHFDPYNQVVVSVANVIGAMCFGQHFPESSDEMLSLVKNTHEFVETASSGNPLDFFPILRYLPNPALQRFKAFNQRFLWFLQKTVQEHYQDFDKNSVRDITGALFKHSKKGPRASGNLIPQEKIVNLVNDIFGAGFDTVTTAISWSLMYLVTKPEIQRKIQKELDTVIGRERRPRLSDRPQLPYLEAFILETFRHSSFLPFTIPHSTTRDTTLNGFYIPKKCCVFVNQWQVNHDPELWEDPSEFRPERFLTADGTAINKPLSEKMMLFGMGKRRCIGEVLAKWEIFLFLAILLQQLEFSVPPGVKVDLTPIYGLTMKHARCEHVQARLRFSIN

[7] = test system: HEK293; experiment: inhibition of NOD1-driven NF-kB reporter – cell-based, luminescence, uHTS, primary screen (AID 1578); type: functional; settings: Homo sapiens
[8] = test system: HEK293; experiment: cells; type: functional, cell-based; settings: Homo sapiens; remark: listed apart in the source
[9] = test system: HEK293; experiment: cells; type: functional, cell-based; settings: Homo sapiens; remark: listed apart in the source
[10] = biological target: Nucleotide-binding oligomerization domain-containing protein 2 (Homo sapiens, UniProt Q9HC29); experiment: inhibition of NOD2-driven NF-kB reporter – cell-based, luminescence, uHTS, HEK293 (AID 1566); type: functional
[11] = test system: HEK293; experiment: NOD2 signaling inhibitors in MDP-stimulated cells, cell-based, uHTS, luminescence (AID 2001); type: functional; settings: Homo sapiens
[12] = test system: HEK293; experiment: cells; type: functional, cell-based; settings: Homo sapiens; remark: listed apart in the source
[13] = biological target: T3, High affinity choline transporter 1 (Homo sapiens, UniProt Q9GZV3); experiment: human choline transporter blockers, potency – cell-based, 5-point CRC, membrane potential dye, dose response (AID 504840); type: functional
T3 sequence (Q9GZV3 whole entry): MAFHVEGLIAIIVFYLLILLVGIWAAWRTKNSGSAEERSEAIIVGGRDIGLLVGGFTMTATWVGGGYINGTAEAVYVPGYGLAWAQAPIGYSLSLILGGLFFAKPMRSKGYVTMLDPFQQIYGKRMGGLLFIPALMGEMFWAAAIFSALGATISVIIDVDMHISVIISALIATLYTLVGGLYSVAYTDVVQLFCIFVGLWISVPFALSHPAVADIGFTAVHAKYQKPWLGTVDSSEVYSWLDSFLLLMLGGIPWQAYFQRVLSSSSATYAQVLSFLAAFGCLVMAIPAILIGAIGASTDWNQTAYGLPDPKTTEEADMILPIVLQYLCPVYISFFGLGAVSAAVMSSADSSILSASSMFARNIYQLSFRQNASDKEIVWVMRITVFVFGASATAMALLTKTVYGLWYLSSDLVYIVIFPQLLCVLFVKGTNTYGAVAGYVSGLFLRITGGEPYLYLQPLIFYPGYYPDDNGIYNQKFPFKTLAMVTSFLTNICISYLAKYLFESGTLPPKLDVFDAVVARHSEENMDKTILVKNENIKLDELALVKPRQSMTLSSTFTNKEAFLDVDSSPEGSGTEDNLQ

[14] = reduction of Shn3 3'UTR-driven luciferase in osteoblasts – cell-based, Clone20 osteoblasts, firefly luciferase, cherry-picked, dose response (AID 624132); type: functional;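 further: firefly luciferase luminescence from reporter carrying the Shn3 3'UTR in osteoblasts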
[15] = loss of viability in HepG2 cells – cell-based, CellTiter-Glo, cherry-picked, cytotoxicity control for Shn3 inhibitor project, dose response (AID 624134); type: functional
[16] = non-specific 3'UTR reporter inhibition in Clone20-Shn3RL – cell-based, Renilla luciferase, cherry-picked, counter-screen for Shn3 inhibitor project, dose response (AID 624133); type: functional
[17] = biological target: T4, Cysteine protease ATG4B (Homo sapiens, UniProt Q9Y4P1); type: functional;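 further: Fluorescence-based dose-response confirmation assay measuring inhibition of ATG4B activity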
T4 sequence (Q9Y4P1 whole entry): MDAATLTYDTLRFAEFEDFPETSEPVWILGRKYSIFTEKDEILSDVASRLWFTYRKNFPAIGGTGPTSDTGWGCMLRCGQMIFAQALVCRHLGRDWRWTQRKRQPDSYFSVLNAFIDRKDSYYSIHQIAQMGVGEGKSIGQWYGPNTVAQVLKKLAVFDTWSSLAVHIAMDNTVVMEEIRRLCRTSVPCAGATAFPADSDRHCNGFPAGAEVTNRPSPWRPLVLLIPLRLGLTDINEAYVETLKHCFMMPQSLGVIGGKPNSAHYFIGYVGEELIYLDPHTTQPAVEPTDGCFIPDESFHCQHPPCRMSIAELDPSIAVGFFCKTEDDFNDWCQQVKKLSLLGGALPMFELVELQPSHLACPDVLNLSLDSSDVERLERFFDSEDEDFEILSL

[18] = biological target: Phospholipase A2 (Homo sapiens, UniProt P04054); type: functional;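 further: confirmatory dose-response counterscreen on phospholipase A2, testing hits that came from an ultra-high-throughput screen for ATG4B inhibitors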
[19] = NIH-3T3 fibroblast cytotoxicity, dose response, cytotoxicity control, cell-based, fluorescence, Alamar Blue, secondary assay (AID 2327); type: functional;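 further: NIH-3T3 mouse fibroblasts cultured with fluconazole at 8 µg/mL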
[20] = fluconazole-exposed Candida albicans growth modulators – fluorescence, retest, confirmation (AID 2467); type: functional, cell-based
[21] = Trypanosoma cruzi growth suppression in host cells – NIH3T3 host cells, beta-gal luminescence, confirmation (AID 2044); type: functional, cell-based;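 further: intracellular parasites grown in NIH/3T3 mouse fibroblasts as host cells; luminescent beta-galactosidase reporter signal from transgenic T. cruzi replicating inside host cells; inhibitors lower the luminescence signal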
[22] = NIH3T3 cell viability loss – ATP luminescence, mouse fibroblasts, counter-screen, dose response (AID 2010); type: functional, cell-based;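 further: cells exposed to compound for about 90 hours before reading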
[23] = biological target: Cytochrome P450 2D6 (Homo sapiens, UniProt P10635);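 further: CYP2D6 member of a cytochrome P450 panel assay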
[24] = biological target: T5, Ubiquitin-conjugating enzyme E2 N (Homo sapiens, UniProt P61088); type: functional;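 further: Dose-response confirmation in a TR-FRET assay detecting UBC13-driven polyubiquitin chain formation, inhibition measured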
T5 sequence (P61088 whole entry): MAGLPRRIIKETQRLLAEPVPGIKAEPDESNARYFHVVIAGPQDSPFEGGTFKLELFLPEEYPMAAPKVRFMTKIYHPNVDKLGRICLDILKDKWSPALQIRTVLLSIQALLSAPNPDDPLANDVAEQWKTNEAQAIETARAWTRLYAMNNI

Cytochrome P450 3A4, sequence (P08684 whole entry): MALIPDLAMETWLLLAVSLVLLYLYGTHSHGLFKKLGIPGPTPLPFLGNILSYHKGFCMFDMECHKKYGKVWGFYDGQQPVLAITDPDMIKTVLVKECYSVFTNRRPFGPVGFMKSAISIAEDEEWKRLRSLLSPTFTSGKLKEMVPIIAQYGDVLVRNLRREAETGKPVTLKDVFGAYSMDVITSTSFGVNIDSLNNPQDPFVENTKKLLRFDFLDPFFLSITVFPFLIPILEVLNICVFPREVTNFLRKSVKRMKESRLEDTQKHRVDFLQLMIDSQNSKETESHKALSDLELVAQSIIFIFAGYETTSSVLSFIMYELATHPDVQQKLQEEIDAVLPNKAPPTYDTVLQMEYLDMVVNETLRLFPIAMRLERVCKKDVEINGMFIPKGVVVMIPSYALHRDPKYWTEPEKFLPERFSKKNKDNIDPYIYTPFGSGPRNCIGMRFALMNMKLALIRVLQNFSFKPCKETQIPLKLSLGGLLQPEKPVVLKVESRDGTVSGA
Phospholipase A2, sequence (P04054 whole entry): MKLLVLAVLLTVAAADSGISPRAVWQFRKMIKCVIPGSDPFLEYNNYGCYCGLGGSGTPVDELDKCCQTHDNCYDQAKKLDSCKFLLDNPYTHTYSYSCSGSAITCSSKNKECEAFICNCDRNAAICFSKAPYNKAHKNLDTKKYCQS
Cytochrome P450 2C9, sequence (P11712 whole entry): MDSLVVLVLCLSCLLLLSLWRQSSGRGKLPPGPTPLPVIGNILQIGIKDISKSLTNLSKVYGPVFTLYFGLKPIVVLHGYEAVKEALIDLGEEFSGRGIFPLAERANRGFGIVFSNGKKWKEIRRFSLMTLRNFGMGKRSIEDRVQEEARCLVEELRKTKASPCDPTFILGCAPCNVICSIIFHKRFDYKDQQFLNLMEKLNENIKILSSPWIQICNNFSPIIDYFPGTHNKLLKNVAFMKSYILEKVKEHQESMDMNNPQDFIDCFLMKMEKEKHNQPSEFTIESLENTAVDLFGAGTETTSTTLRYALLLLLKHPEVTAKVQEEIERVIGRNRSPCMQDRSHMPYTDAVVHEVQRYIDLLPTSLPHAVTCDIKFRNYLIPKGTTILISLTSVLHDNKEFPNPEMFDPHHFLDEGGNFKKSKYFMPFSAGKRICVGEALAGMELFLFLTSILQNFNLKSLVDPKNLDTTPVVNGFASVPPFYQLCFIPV
Nucleotide-binding oligomerization domain-containing protein 2, sequence (Q9HC29 whole entry, the tested form may be a part): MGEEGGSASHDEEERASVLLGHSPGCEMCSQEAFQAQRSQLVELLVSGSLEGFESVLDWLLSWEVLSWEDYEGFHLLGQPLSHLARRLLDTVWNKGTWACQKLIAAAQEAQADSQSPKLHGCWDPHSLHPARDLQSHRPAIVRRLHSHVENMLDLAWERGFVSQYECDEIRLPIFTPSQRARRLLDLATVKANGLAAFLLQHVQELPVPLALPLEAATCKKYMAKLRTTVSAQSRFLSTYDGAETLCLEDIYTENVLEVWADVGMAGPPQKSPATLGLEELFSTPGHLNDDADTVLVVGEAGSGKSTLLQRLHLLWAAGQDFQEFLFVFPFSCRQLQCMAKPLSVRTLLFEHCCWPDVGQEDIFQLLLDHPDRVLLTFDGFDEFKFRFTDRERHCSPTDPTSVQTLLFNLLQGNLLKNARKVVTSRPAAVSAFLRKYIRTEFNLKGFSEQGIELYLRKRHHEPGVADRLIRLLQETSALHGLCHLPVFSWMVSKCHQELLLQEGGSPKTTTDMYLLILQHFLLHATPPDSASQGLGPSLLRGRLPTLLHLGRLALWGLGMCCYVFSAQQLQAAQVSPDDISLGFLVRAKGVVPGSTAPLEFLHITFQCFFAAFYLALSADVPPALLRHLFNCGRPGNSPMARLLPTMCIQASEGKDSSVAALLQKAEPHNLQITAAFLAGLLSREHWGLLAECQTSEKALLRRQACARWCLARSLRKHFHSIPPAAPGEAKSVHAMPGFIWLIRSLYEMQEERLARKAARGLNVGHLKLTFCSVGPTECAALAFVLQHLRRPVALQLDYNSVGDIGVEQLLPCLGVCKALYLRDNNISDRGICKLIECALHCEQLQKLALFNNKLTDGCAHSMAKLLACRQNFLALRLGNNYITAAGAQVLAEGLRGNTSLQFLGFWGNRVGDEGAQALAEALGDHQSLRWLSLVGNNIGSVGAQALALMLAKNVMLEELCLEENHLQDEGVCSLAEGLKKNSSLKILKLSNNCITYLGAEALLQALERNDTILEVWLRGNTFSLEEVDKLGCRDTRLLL
Cytochrome P450 2C19, sequence (P33261 whole entry): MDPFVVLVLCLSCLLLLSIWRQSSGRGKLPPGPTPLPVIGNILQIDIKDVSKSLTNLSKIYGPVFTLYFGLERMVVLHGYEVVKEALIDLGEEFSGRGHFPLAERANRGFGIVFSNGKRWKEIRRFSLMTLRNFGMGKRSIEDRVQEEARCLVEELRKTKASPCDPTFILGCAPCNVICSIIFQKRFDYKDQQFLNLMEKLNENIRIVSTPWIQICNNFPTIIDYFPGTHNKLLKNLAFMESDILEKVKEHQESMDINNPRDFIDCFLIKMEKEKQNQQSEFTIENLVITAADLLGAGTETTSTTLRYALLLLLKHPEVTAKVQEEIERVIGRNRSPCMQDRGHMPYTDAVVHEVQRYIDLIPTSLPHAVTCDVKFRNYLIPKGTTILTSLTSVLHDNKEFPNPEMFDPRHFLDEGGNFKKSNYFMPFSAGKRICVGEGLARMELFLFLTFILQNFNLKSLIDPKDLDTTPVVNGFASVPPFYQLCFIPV
Cytochrome P450 2D6, sequence (P10635 whole entry): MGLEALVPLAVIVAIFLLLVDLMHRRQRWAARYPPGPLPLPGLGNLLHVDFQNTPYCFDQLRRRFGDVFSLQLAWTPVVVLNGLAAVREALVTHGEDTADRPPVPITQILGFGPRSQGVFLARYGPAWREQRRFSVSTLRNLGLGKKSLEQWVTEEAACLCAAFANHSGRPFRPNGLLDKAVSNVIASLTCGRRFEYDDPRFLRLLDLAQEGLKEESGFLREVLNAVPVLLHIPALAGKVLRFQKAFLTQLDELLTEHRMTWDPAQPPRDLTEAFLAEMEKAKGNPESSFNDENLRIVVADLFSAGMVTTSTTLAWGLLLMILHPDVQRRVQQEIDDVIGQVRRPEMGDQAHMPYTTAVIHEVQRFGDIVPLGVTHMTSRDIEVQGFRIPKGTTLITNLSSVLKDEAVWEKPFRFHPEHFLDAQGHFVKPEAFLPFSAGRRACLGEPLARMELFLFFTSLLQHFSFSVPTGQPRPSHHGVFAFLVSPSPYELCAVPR

CCOC(=O)c1c(-c2ccccc2)nc2ccccn12
AC50 [1]: 25.1 µM (inconclusive) | AC50 [2]: 25.1 µM (inconclusive) | AC50 [3]: inconclusive

C[C@@H]1CN(Cc2nc(-c3cccs3)no2)C[C@H](C)O1
IC50 [4]: > 67.5 µM (inactive) | IC50 [5]: > 67.5 µM (inactive)

O=C(Nc1ccccc1)N1CC2(CCN(C(=O)Oc3ccccc3)CC2)C1
AC50 [6]: 20 µM (inconclusive) | AC50 [3]: inconclusive

COc1ccc(-c2nc(CN3CCN(c4ncnc5ccccc45)CC3)c(C)o2)c(OC)c1
EC50 [7]: 5.23 µM (active) | IC50 [8]: 6.96 µM (active) | IC50 [9]: 13.7 µM (active) | EC50 [10]: 5.52 µM (active) | IC50 [11]: 6.38 µM (active) | IC50 [12]: > 20 µM (inactive) | IC50 [13]: 16.8 µM (active) | AC50 [14]: 6.38 µM (active) | AC50 [15]: > 70 µM (inactive) | AC50 [16]: 5.24 µM (active)

Cc1c(C)c(C)c(CO/N=C/c2cccs2)c(C)c1C
IC50 [17]: 17.4 µM (active) | IC50 [18]: 7.99 µM (active)

CN(NC1OC(=O)c2ccccc21)c1ccccc1[N+](=O)[O-] (stereo unspecified)
IC50 [4]: > 67.5 µM (inactive) | IC50 [5]: > 67.5 µM (inactive)

O=C(c1ccccc1)c1ccc2[nH]c(-c3ccc(NC(=O)c4ccccc4Br)cc3)nc2c1
EC50 [19]: 2.97 µM (active) | EC50 [20]: 6.15 µM (active) | EC50 [21]: 1.59 µM (active) | EC50 [22]: 7.33 µM (active) | AC50 [23]: 14.1 µM (inconclusive) | AC50 [3]: inconclusive

CC1=CC(c2ccccc2)n2nnnc2N1 (stereo unspecified)
IC50 [4]: > 67.6 µM (inactive) | IC50 [5]: > 67.6 µM (inactive)

O=C(Oc1ccccc1)N1CCC2(CC1)CN(c1ncccn1)C2
AC50 [6]: 25.1 µM (inconclusive) | AC50 [2]: 25.1 µM (inconclusive) | AC50 [3]: inconclusive

COC(=O)c1cc(/N=C/c2c(O)oc3ccccc3c2=O)cc(C(=O)OC)c1
IC50 [4]: > 67.5 µM (inactive) | IC50 [5]: > 67.5 µM (inactive)

COc1ccc(-c2[nH]nc3c2C(c2ccc(OC(=O)N4CCOCC4)cc2)C(C#N)=C(N)O3)cc1 (stereo unspecified)
IC50 [17]: 18.3 µM (active) | IC50 [18]: 13.4 µM (active)

CCCCn1c(SCC(=O)Nc2cc(C)n[nH]2)nc2ccsc2c1=O
IC50 [24]: > 20 µM (inactive) | IC50 [17]: 12.2 µM (active) | IC50 [18]: 9.31 µM (active)

O=C(c1ccccc1)c1cnc(Nc2ccccc2Cl)s1
IC50 [17]: 11.5 µM (active) | IC50 [18]: 7.65 µM (active)
